# Data as given in patent US9994865B2, “PEG-Prom mediated surface expression of avidin/streptavidin” (The Johns Hopkins University, priority 2013, dated 2018).
# B1: MDA-7/IL-24: melanoma differentiation associated gene-7/Interleukin-24, immunomodulatory cytokine, delivered by adenovirus (protein, UniProt Q13007 52-206, looked up)
# Interleukin-24: QEFHFGPCQVKGVVPQKLWEAFWAVKDTMQAQDNITSARLLQQEVLQNVSDAESCYLVHTLLEFYLKTVFKNYHNRTVEVRTLKSFSTLANNFVLIVSQLQPSQENEMFSIRDSAHRRFLLFRRAFKQLDVEAALTKALGEVDILLTWMQKFYKL
# modifications: adenovirus-delivered
# notes: melanoma differentiation associated gene-7/Interleukin-24, immunomodulatory cytokine, delivered by adenovirus
# Tests used:
# [1] = system: avidin-expressing and non-expressing tumor cells; settings: expected outcome; LD50 against expressing vs. non-expressing cells
# Source text: The LD50 against avidin-expressing and non-expressing tumor cells of each will be evaluated, in vitro. The maximum tolerated dose and anti-tumor efficacy of each will also be evaluated in PCa models. […] Upon necropsy, tumor xenografts will be pathologically analyzed to evaluate cell killing. […] Tumor size will be measured with calipers, or with BLI in the case of g- or fLuc-expressing cells.
# tumors and metastases = settings: prior studies, adenovirus-based oncolytic gene delivery, nude mice; cited from earlier work
Molecule,specificity of cell killing to avidin expressing cells [1],effect on tumors and metastases (tumors and metastases)
^90Y-CHX-A-DTPA-biotin [^90Y conjugate],less specific to avidin expressing cells,–
^213Bi-CHX-A-DTPA-biotin [^213Bi conjugate],highly specific to expressing cells,–
B1,–,complete eradication of tumors and metastases
